Read-outs that look alike come from different tables or passages of the source. Numbered stars: 1 amine (or outer) side, 2 acyl side, 3 side chain; on linkers, the order of the positions; unused ones are H or OH. Square brackets hold non-standard residues; d marks the D form. Side chains are listed from the residue outwards. Peptide text beside a SMILES is read from it. * marks the point of attachment. C18 diacid = O=C(O)CCCCCCCCCCCCCCCCC(=O)*; γGlu = O=C(O)[C@H](CCC(=O)[*:2])N[*:1]; Stearoyl = CCCCCCCCCCCCCCCCCC(=O)*; Palmitoyl = CCCCCCCCCCCCCCCC(=O)*; αMeF = C[C@](N)(Cc1ccccc1)C(=O)O; αMeK = C[C@](N)(CCCCN)C(=O)O; αMeS = C[C@](N)(CO)C(=O)O; AEEA = NCCOCCOCC(=O)O; Aib = CC(C)(N)C(=O)O
Assays:
Type in all cases: cell-based
GLP-1R (INS1e assay) = target: T1, GLP-1R (INS1e assay) (Rattus norvegicus, UniProt P32301); assay: INS1e assay, cAMP activity at GLP-1R; settings: mono-lipidated peptides
T1 construct: endogenous in cells; host or cells: INS-1E cells
T1 sequence (P32301 22-463): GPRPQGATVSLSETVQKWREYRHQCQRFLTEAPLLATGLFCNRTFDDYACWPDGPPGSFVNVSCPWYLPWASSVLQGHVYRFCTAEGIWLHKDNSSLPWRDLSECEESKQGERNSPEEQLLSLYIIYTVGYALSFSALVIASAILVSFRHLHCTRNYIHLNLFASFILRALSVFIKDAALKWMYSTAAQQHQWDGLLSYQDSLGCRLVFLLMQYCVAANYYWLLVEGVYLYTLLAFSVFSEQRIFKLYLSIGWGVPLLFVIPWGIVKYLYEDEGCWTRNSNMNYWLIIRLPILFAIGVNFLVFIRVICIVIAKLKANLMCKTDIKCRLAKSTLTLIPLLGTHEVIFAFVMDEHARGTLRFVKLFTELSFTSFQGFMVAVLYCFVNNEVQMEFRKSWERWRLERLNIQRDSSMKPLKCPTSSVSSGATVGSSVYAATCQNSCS
How it was run: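 cAMP was quantified by two-step HTRF, using anti-cAMP cryptate donor and cAMP-d2 acceptor, each diluted 1/20 in conjugate and lysis buffer. EC50 values of the synthetic peptides were derived from the cAMP readout.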

[1] = target: T2, human glucagon receptor (GCGR) (Homo sapiens, UniProt P47871); assay: cAMP assay, human GCGR cells; settings: cAMP assay
T2 construct: expressed in transfected cells
T2 sequence (P47871 26-477): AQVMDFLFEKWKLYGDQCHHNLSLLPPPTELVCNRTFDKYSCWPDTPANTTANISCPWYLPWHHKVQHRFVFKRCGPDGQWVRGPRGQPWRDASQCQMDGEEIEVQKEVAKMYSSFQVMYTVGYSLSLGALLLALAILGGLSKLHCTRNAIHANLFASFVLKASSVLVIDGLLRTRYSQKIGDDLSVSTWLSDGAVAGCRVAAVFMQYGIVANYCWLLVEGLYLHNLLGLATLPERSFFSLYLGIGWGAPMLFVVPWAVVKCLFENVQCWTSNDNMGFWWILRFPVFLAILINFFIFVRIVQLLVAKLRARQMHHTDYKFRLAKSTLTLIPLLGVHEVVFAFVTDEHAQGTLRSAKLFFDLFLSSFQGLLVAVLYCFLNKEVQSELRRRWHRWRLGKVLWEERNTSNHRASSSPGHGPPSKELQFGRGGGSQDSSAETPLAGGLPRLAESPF
How it was run: (§1)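 Peptide-stimulated cAMP measured by two-step HTRF after a 30 min room-temperature incubation with receptor-expressing cells (hGLP-1R, hGIPR at 1×10^5 cells/ml; hGCGR at 2×10^5 cells/ml). Duplicate dilutions; EC50 from 4-parameter logistic fit of % Delta F.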

[2] = target: T3, human glucose-dependent insulinotropic peptide receptor (GIPR) (Homo sapiens, UniProt P48546); assay: cAMP assay, human GIPR cells; settings: cAMP assay
T3 construct: expressed in transfected cells
T3 sequence (P48546 22-466): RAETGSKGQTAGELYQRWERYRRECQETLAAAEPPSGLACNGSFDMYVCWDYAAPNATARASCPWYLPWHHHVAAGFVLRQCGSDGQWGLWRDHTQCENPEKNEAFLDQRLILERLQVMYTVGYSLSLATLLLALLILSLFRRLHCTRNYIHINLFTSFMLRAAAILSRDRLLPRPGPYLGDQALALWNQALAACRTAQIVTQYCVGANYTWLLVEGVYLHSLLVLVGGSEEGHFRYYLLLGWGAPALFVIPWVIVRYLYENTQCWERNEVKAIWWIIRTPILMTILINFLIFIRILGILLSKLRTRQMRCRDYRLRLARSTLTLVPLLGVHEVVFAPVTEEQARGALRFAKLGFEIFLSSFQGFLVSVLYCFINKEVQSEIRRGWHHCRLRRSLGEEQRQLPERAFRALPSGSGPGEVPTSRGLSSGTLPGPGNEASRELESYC
How it was run: as §1

[3] = target: T4, human GLP-1 receptor (GLP-1R) (Homo sapiens, UniProt P43220); assay: cAMP assay, human GLP-1R cells
T4 construct: expressed in transfected cells
T4 sequence (P43220 24-463): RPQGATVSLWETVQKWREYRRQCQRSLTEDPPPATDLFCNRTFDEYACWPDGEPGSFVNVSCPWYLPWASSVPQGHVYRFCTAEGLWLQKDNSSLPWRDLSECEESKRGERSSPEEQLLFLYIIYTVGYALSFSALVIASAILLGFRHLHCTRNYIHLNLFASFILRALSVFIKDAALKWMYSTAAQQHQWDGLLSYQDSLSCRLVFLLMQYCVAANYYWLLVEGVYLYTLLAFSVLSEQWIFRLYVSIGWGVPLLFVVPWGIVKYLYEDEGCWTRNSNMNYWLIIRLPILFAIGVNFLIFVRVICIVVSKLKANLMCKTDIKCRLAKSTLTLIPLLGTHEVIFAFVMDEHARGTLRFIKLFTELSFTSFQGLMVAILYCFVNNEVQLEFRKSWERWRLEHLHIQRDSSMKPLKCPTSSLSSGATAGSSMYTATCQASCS
How it was run: as §1

[4] = mean of n1 and n2, read-out: INS1e assay EC50 Mean pM GLP-1R
[5] = replicate n1, read-out: INS1e assay EC50 GLP-1R n1
[6] = replicate n2, read-out: INS1e assay EC50 GLP-1R n2
[7] = first determination (n1), read-out: Primary assay EC50 Gluc-R (n1)
[8] = second determination (n2), read-out: Primary assay EC50 Gluc-R (n2)
[9] = first determination (n1), read-out: Primary assay EC50 GIP-R (n1)
[10] = second determination (n2), read-out: Primary assay EC50 GIP-R (n2)
[11] = cAMP assay, first determination (n1), read-out: Primary assay EC50 GLP-1R n1
[12] = cAMP assay, second determination (n2), read-out: Primary assay EC50 GLP-1R n2
[13] = mean of n1 and n2, read-out: Mean pM GLP-1R

EC50 (GLP-1R (INS1e assay); [4])	EC50 (GLP-1R (INS1e assay); [5])	EC50 (GLP-1R (INS1e assay); [6])	EC50 [1, 7]	EC50 [1, 8]	EC50 [2, 9]	EC50 [2, 10]	EC50 [3, 11]	EC50 [3, 12]	EC50 [3, 13]	Structure (SMILES)
11 pM	12.5 pM	10.1 pM	≥ 25 nM	≥ 25 nM	≥ 25 nM	≥ 25 nM	1.4 pM	2.3 pM	1.8 pM	CCCCCCCCCCCCCCCCCC(=O)NCCOCCOCC(=O)NCCOCCOCC(=O)NCCOCCOCC(=O)NCCCC[C@H](NC(=O)[C@H](C)NC(=O)[C@H](C)NC(=O)[C@H](CCC(=O)O)NC(=O)CNC(=O)[C@H](CCC(=O)O)NC(=O)[C@H](CC(C)C)NC(=O)[C@](C)(Cc1ccccc1)NC(=O)[C@H](CO)NC(=O)[C@](C)(CO)NC(=O)[C@@H](NC(=O)[C@H](CC(=O)O)NC(=O)[C@H](CO)NC(=O)[C@@H](NC(=O)[C@](C)(Cc1ccccc1)NC(=O)[C@H](CO)NC(=O)CNC(=O)[C@H](CCC(=O)O)NC(=O)C(C)(C)NC(=O)[C@@H](N)Cc1c[nH]cn1)[C@@H](C)O)C(C)C)C(=O)N[C@@H](CCC(=O)O)C(=O)N[C@@](C)(Cc1ccccc1)C(=O)N[C@H](C(=O)N[C@@H](C)C(=O)N[C@@H](Cc1c[nH]c2ccccc12)C(=O)N[C@H](C(=O)N[C@H](C(=O)N[C@@](C)(CCCCN)C(=O)NCC(=O)NCC(N)=O)C(C)C)C(C)C)[C@@H](C)CC [compound 55] (H-H[Aib]EGS[αMeF]TSDV[αMeS]S[αMeF]LEGEAAK([AEEA-AEEA-AEEA-Stearoyl])E[αMeF]IAWVV[αMeK]GG-NH2)
194 pM	137 pM	250 pM	≥ 28 nM	≥ 28 nM	≥ 28 nM	≥ 28 nM	3.2 pM	4 pM	3.6 pM	CCCCCCCCCCCCCCCC(=O)N[C@@H](CCC(=O)NCCCC[C@H](NC(=O)CNC(=O)[C@H](CCC(=O)O)NC(=O)[C@H](CC(C)C)NC(=O)[C@](C)(Cc1ccccc1)NC(=O)[C@H](CO)NC(=O)[C@](C)(CO)NC(=O)[C@@H](NC(=O)[C@H](CC(=O)O)NC(=O)[C@H](CO)NC(=O)[C@@H](NC(=O)[C@](C)(Cc1ccccc1)NC(=O)[C@H](CO)NC(=O)CNC(=O)[C@H](CCC(=O)O)NC(=O)C(C)(C)NC(=O)[C@@H](N)Cc1c[nH]cn1)[C@@H](C)O)C(C)C)C(=O)N[C@@H](C)C(=O)N[C@@H](C)C(=O)N[C@@](C)(CCCCN)C(=O)N[C@@H](CCC(=O)O)C(=O)N[C@@](C)(Cc1ccccc1)C(=O)N[C@H](C(=O)N[C@@H](C)C(=O)N[C@@](C)(Cc1ccccc1)C(=O)N[C@H](C(=O)N[C@H](C(=O)N[C@@](C)(CCCCN)C(=O)NCC(=O)NCC(N)=O)C(C)C)C(C)C)[C@@H](C)CC)C(=O)O [compound 83] (H-H[Aib]EGS[αMeF]TSDV[αMeS]S[αMeF]LEGK([γGlu-Palmitoyl])AA[αMeK]E[αMeF]IA[αMeF]VV[αMeK]GG-NH2)
822 pM	233 pM	1410 pM	≥ 25 nM	≥ 24.9 nM	≥ 25 nM	≥ 24.9 nM	16 pM			CC[C@H](C)[C@H](NC(=O)[C@](C)(Cc1ccccc1)NC(=O)[C@H](CCC(=O)O)NC(=O)[C@](C)(CCCCN)NC(=O)[C@H](C)NC(=O)[C@H](C)NC(=O)[C@H](CCC(=O)O)NC(=O)CNC(=O)[C@H](CCC(=O)O)NC(=O)[C@H](CC(C)C)NC(=O)[C@](C)(Cc1ccccc1)NC(=O)[C@H](CO)NC(=O)[C@](C)(CO)NC(=O)[C@@H](NC(=O)[C@H](CC(=O)O)NC(=O)[C@H](CO)NC(=O)[C@@H](NC(=O)[C@](C)(Cc1ccccc1)NC(=O)[C@H](CO)NC(=O)CNC(=O)[C@H](CCC(=O)O)NC(=O)C(C)(C)NC(=O)[C@@H](N)Cc1c[nH]cn1)[C@@H](C)O)C(C)C)C(=O)N[C@@H](C)C(=O)N[C@@](C)(Cc1ccccc1)C(=O)N[C@H](C(=O)N[C@H](C(=O)N[C@@](C)(CCCCN)C(=O)N[C@@H](CCCCNC(=O)COCCOCCNC(=O)COCCOCCNC(=O)CC[C@H](NC(=O)CCCCCCCCCCCCCCCCC(=O)O)C(=O)O)C(=O)NCC(N)=O)C(C)C)C(C)C [compound 100] (H-H[Aib]EGS[αMeF]TSDV[αMeS]S[αMeF]LEGEAA[αMeK]E[αMeF]IA[αMeF]VV[αMeK]K([AEEA-AEEA-γGlu-C18 diacid])G-NH2)
